Data published in patent publication US9796733B2, “Imidazo-pyrazine derivatives useful as soluble guanylate cyclase activators” (Merck Sharp & Dohme Corp., priority 2014, dated 2017).

Tests used:
[1] = target: T1, sGC α1/β1 heterodimer (Homo sapiens, UniProt Q02108+Q02153); assay: Cell-based sGC functional assay (CASA assay): cGMP generation in CHO-K1/sGC cells, HTRF detection; settings: for Emax: CHO-K1, percent activation relative to standard Compound A in CHO-K1/sGC cells, read-out: % Act.; for EC50: inflection point (IP) of cGMP generation in CHO-K1/sGC cells, 4P fit, activity expressed as percentage of Compound A
T1 construct: expressed in transfected cells; host or cells: CHO-K1 (clone #7, CHO-K1/sGC)
T1 sequence (Q02108 1-690): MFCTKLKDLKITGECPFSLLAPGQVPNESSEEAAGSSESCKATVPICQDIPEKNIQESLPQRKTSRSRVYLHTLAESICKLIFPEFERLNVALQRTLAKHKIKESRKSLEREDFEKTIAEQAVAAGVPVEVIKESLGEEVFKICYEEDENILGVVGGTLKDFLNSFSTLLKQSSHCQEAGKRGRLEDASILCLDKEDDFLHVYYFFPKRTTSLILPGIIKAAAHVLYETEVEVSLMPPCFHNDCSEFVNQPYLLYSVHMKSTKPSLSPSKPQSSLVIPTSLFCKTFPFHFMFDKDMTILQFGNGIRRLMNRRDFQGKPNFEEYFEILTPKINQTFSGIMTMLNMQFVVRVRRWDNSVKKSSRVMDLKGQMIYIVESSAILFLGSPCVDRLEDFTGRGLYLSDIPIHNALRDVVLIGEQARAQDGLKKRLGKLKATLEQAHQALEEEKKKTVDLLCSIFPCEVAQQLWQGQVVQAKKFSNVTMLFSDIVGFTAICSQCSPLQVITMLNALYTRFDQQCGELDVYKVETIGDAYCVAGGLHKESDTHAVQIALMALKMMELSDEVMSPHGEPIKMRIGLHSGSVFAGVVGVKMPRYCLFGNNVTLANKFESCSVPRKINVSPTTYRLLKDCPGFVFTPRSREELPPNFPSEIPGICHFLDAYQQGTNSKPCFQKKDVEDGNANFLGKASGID
T1 sequence (Q02153 1-619): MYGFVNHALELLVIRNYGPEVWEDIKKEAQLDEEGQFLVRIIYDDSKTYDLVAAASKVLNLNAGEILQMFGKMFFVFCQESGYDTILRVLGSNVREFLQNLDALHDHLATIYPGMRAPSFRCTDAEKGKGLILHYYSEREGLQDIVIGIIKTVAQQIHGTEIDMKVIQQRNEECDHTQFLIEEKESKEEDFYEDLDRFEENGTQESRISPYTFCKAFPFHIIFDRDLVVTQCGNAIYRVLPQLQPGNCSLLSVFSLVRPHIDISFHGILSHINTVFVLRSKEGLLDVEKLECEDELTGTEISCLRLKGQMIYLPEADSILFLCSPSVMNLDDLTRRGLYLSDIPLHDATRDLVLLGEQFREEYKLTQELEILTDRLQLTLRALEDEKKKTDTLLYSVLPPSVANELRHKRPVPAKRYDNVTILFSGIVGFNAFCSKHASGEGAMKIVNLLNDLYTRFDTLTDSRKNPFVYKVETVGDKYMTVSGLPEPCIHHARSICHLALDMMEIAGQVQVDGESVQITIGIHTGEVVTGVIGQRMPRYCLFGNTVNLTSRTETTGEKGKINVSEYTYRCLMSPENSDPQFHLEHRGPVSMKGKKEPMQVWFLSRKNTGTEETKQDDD
How it was run: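 Stable CHO-K1/sGC cells in EBSS buffer with 5 mM MgCl2, 0.05% BSA and 0.5 mM IBMX were incubated with compound (2.5% DMSO final) ±1 μM DETA-NO for 1 hr at 37° C. cGMP was measured by HTRF. Activation is expressed as % of reference HDA Compound A maximum, with IP and max fold induction from a 4P fit.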

[2] = tested on: Spontaneously hypertensive rats (SHR); assay: Acute efficacy in spontaneously hypertensive rats (SHR): telemetry blood pressure lowering after a single oral dose; assay type: in vivo, rat
How it was run: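 Male SHR carrying aortic telemetry implants (14-day recovery) received a single oral gavage of compound or vehicle (10% transcutol/20% Cremophor/70% water). Conscious blood pressure was sampled 30 s every 10 min and averaged hourly; change was taken against the prior-day vehicle baseline, reported as maximum peak SBP decrease at a given PO dose (mpk).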

Compound | Emax [1] [%] | EC50 [1] [µM] | Maximum peak decrease of systolic blood pressure (SBP) in SHR, Cat. ([2]; P.O. 3.0 mpk) | Maximum peak decrease of systolic blood pressure (SBP) in SHR, Cat. ([2]; P.O. 1.0 mpk) | Maximum peak decrease of systolic blood pressure (SBP) in SHR, Cat. ([2]; P.O. 0.3 mpk)
CC1(c2ncccn2)C(=O)Nc2nc(-c3cn4ccnc4c(CCC(F)(F)C(F)(F)F)n3)nc(N)c21 (stereo not drawn) [Example 220B, 4-amino-5-methyl-2-(8-(3,3,4,4,4-pentafluorobutyl)imidazo [1,2-a]pyrazin-6-yl)-5-(pyrimidin-2-yl)-5H-pyrrolo[2,3-d]pyrimidin-6(7H)-one] | 100 | 0.409 | A (Category A=SBP in SHRs<20 mmHg) |  | 
Cc1ccc(C2(C)C(=O)Nc3nc(-c4cn5ccnc5c(CCC(F)(F)C(F)(F)F)n4)nc(N)c32)cn1 (stereo not drawn) [Example 221A, 4-amino-5-methyl-5-(6-methylpyridin-3-yl)-2-(8-(3,3,4,4,4-pentafluorobutyl)imidazo [1,2-a]pyrazin-6-yl)-5H-pyrrolo[2,3-d]pyrimidin-6(7H)-one] | 107 | 0.496 |  | A (Category A=SBP in SHRs<20 mmHg) | 
Nc1nc(-c2cn3ccnc3c(CCC(F)(F)C(F)(F)F)n2)nc2c1C(c1ccc(F)cn1)(C1CC1)C(=O)N2 (stereo not drawn) [Example 223A, 4-amino-5-cyclopropyl-5-(5-fluoropyridin-2-yl)-2-(8-(3,3,4,4,4-pentafluorobutyl)imidazo [1,2-a]pyrazin-6-yl)-5H-pyrrolo[2,3-d]pyrimidin-6(7H)-one] | 84 | 0.177 |  | B (Category B=SBP in SHRs 20-40 mmHg) | 
CC(C)c1ccc(C2(C)C(=O)Nc3nc(-c4cn5ccnc5c(CCC(F)(F)C(F)(F)F)n4)nc(N)c32)nc1 (stereo not drawn) [Example 225A, 4-amino-5-(5-isopropylpyridin-2-yl)-5-methyl-2-(8-(3,3,4,4,4-pentafluorobutyl)imidazo [1,2-a]pyrazin-6-yl)-5H-pyrrolo[2,3-d]pyrimidin-6(7H)-one] | 82 | 0.166 |  | A (Category A=SBP in SHRs<20 mmHg) | 
CC1(c2ccc(Cl)cn2)C(=O)Nc2nc(-c3cn4ccnc4c(CCC(F)(F)C(F)(F)F)n3)nc(N)c21 (stereo not drawn) [Example 228A, 4-amino-5-(5-chloropyridin-2-yl)-5-methyl-2-(8-(3,3,4,4,4-pentafluorobutyl)imidazo [1,2-a]pyrazin-6-yl)-5H-pyrrolo[2,3-d]pyrimidin-6(7H)-one] | 108 | 0.02 |  |  | B (Category B=SBP in SHRs 20-40 mmHg)
CC1(c2cccc(F)c2)C(=O)Nc2nc(-c3cn4ccnc4c(CCC(F)(F)C(F)(F)F)n3)nc(N)c21 (stereo not drawn) [Example 231A, 4-amino-5-(3-fluorophenyl)-5-methyl-2-(8-(3,3,4,4,4-pentafluorobutyl)imidazo [1,2-a]pyrazin-6-yl)-5H-pyrrolo[2,3-d]pyrimidin-6(7H)-one] | 156 | 0.05 |  |  | A (Category A=SBP in SHRs<20 mmHg)
CC1(c2ccccc2)C(=O)Nc2nc(-c3cn4ccnc4c(CCC(F)(F)C(F)(F)F)n3)nc(N)c21 (stereo not drawn) [Example 232B, 4-amino-5-methyl-2-(8-(3,3,4,4,4-pentafluorobutyl)imidazo [1,2-a]pyrazin-6-yl)-5-phenyl-5H-pyrrolo[2,3-d]pyrimidin-6(7H)-one] | 60 | 0.017 |  | C (Category C=SBP in SHRs>40 mmHg) | 
Nc1nc(-c2cn3ccnc3c(CCC(F)(F)C(F)(F)F)n2)nc2c1C(c1ccc(F)cc1)(C1CC1)C(=O)N2 (stereo not drawn) [Example 233B, 4-amino-5-cyclopropyl-5-(4-fluorophenyl)-2-(8-(3,3,4,4,4-pentafluorobutyl)imidazo [1,2-a]pyrazin-6-yl)-5H-pyrrolo[2,3-d]pyrimidin-6(7H)-one] | 131 | 0.043 |  |  | B (Category B=SBP in SHRs 20-40 mmHg)
CC1(c2ccc(OC(F)(F)F)cc2)C(=O)Nc2nc(-c3cn4ccnc4c(CCC(F)(F)C(F)(F)F)n3)nc(N)c21 (stereo not drawn) [Example 234B, 4-amino-5-methyl-2-(8-(3,3,4,4,4-pentafluorobutyl)imidazo [1,2-a]pyrazin-6-yl)-5-(4-(trifluoromethoxy)phenyl)-5H-pyrrolo[2,3-d]pyrimidin-6(7H)-one] | 105 | 0.027 |  |  | A (Category A=SBP in SHRs<20 mmHg)
Nc1nc(-c2cn3ccnc3c(CCC(F)(F)C(F)(F)F)n2)nc2c1C(c1ccc(Cl)cc1)(C1CC1)C(=O)N2 (stereo not drawn) [Example 235B, 4-amino-5-(4-chlorophenyl)-5-cyclopropyl-2-(8-(3,3,4,4,4-pentafluorobutyl)imidazo [1,2-a]pyrazin-6-yl)-5H-pyrrolo[2,3-d]pyrimidin-6(7H)-one] | 148 | 0.036 |  |  | B (Category B=SBP in SHRs 20-40 mmHg)
CC1(c2ccc(Cl)cc2)C(=O)Nc2nc(-c3cn4ccnc4c(CCC(F)(F)C(F)(F)F)n3)nc(N)c21 (stereo not drawn) [Example 238A, 4-amino-5-(4-chlorophenyl)-5-methyl-2-(8-(3,3,4,4,4-pentafluorobutyl)imidazo [1,2-a]pyrazin-6-yl)-5H-pyrrolo[2,3-d]pyrimidin-6(7H)-one] | 131 | 0.071 |  |  | C (Category C=SBP in SHRs>40 mmHg)
CCC1(c2ccc(F)cc2)C(=O)Nc2nc(-c3cn4ccnc4c(CCC(F)(F)C(F)(F)F)n3)nc(N)c21 (stereo not drawn) [Example 239A, 4-amino-5-ethyl-5-(4-fluorophenyl)-2-(8-(3,3,4,4,4-pentafluorobutyl)imidazo [1,2-a]pyrazin-6-yl)-5H-pyrrolo[2,3-d]pyrimidin-6(7H)-one] | 97 | 0.053 |  |  | B (Category B=SBP in SHRs 20-40 mmHg)
CC1(c2ccc(C3CC3)nc2)C(=O)Nc2nc(-c3cn4ccnc4c(CCC(F)(F)C(F)(F)F)n3)nc(N)c21 (stereo not drawn) [Example 240B, 4-amino-5-(6-cyclopropylpyridin-3-yl)-5-methyl-2-(8-(3,3,4,4,4-pentafluorobutyl)imidazo [1,2-a]pyrazin-6-yl)-5H-pyrrolo[2,3-d]pyrimidin-6(7H)-one] | 105 | 0.053 |  | A (Category A=SBP in SHRs<20 mmHg) | 
CCc1ccc(C2(C)C(=O)Nc3nc(-c4cn5ccnc5c(CCC(F)(F)C(F)(F)F)n4)nc(N)c32)cn1 (stereo not drawn) [Example 243B, 4-amino-5-(6-ethylpyridin-3-yl)-5-methyl-2-(8-(3,3,4,4,4-pentafluorobutyl)imidazo [1,2-a]pyrazin-6-yl)-5H-pyrrolo[2,3-d]pyrimidin-6(7H)-one] | 106 | 0.208 |  | A (Category A=SBP in SHRs<20 mmHg) | 
CCOc1ccc(C2(C)C(=O)Nc3nc(-c4cn5ccnc5c(CCC(F)(F)C(F)(F)F)n4)nc(N)c32)cn1 (stereo not drawn) [Example 244B, 4-amino-5-(6-ethoxypyridin-3-yl)-5-methyl-2-(8-(3,3,4,4,4-pentafluorobutyl)imidazo [1,2-a]pyrazin-6-yl)-5H-pyrrolo[2,3-d]pyrimidin-6(7H)-one] | 109 | 0.081 | C (Category C=SBP in SHRs>40 mmHg) |  | 
